# Reference: PMC10975498, “Trimethyltin(IV) Bearing 3-(4-Methyl-2-oxoquinolin-1(2H)-yl)propanoate Causes Lipid Peroxidation-Mediated Autophagic Cell Death in Human Melanoma A375 Cells” (Pharmaceuticals, 2024)
# Target: T1, Bovine Serum Albumin (BSA) (Bos taurus, UniProt P02769)
# T1 construct: gene ALB
# Test: spectrofluorometric titration (tryptophan fluorescence quenching, double-log Stern-Volmer) at […] and […] °C; Kb given is at […] °C
# Format: binding
# Details: read-out: spectrofluorometric titration (tryptophan fluorescence quenching, double-log Ste) (converted)
# T1 sequence (P02769 25-607): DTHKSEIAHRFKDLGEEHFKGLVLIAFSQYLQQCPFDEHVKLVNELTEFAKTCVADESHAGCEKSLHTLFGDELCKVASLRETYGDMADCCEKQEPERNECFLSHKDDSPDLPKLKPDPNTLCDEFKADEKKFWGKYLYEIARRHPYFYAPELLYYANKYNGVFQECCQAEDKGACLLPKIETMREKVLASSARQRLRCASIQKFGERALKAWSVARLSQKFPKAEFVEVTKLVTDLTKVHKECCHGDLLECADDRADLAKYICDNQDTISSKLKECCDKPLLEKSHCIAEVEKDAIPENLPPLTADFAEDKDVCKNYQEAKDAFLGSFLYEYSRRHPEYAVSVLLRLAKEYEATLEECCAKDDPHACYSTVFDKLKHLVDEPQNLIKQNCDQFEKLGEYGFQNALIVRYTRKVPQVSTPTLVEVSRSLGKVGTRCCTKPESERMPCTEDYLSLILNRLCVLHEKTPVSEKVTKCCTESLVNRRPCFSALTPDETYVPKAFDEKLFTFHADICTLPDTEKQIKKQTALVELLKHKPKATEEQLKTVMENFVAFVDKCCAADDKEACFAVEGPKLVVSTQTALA
structure (smiles),measurement,value
"Cc1cc(=O)n(CCC(=O)[O][Sn]([CH3])([CH3])[CH3])c2ccccc12 [Me3SnL, (3-(4-methyl-2-oxoquinolin-1(2H)-yl)propanoato)trimethyltin(IV)]",Kd,422 nM
